Measurements taken from ChEMBL document CHEMBL2424594, “Contributions of academic laboratories to the discovery and development of chemical biology tools” (J Med Chem, 2013).

Tests used:
Homo sapiens = species on record: Homo sapiens; assay: Selectivity ratio of Ki for CB1 receptor (unknown origin) to Ki for CB2 receptor (unknown origin)
Cannabinoid receptor 1 = Cannabinoid receptor 1 (Homo sapiens, UniProt P21554); assay: Binding affinity to CB1 receptor (unknown origin)
Cannabinoid receptor 2 = Cannabinoid receptor 2 (Homo sapiens, UniProt P34972); assay: Binding affinity to CB2 receptor (unknown origin)
Cannabinoid receptor 2, sequence (P34972 whole entry): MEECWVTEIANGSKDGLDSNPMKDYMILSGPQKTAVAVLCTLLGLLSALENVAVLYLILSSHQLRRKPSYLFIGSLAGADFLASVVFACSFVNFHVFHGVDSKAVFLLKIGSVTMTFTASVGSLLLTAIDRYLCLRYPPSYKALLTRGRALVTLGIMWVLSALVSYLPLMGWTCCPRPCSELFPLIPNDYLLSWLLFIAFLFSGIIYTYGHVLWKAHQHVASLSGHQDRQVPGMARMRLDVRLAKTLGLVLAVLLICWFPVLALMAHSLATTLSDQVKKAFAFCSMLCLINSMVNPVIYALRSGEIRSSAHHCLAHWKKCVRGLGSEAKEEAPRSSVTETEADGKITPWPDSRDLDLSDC

Cannabinoid receptor 1, sequence (P21554 whole entry): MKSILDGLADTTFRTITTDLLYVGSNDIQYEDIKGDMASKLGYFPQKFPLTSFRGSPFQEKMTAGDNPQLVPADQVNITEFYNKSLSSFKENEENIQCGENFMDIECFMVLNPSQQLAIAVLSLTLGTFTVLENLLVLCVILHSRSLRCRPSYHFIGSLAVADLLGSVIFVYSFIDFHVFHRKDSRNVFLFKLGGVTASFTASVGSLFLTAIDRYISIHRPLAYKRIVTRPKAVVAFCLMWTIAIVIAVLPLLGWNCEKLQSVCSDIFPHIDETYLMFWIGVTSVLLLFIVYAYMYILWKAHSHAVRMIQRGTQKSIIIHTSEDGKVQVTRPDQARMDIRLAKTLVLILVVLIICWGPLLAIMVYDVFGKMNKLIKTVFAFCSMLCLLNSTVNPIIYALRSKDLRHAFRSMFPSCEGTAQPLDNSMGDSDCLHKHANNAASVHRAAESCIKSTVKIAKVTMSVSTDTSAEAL

SMILES	Ratio Ki (Homo sapiens)	Ki (Cannabinoid receptor 1) [nM]	Ki (Cannabinoid receptor 2) [nM]
CN1CCCCC1Cn1cc(C(=O)c2cc([N+](=O)[O-])ccc2I)c2ccccc21 (racemic)	82	280	3.4
CCCn1cc(C(=O)c2ccc(C)c3ccccc23)c2ccccc21	173	–	–
